Reference: US7759345B2, “Antitumoral derivatives of ET-743” (priority 2001, dated 2010)

Tests used:
HT-29 = assay: Inhibition of cells growth by colorimetric assay (SRB), HT-29; format: cell-based; details: SRB, 48 hours exposure
Method in brief: (§1)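 Compound in DMSO/EtOH/PBS vehicle was applied at 10 to 10^−8 μg/ml to attached cells (5×10^3/well, 18 h) for 48 h. Cells were then fixed with cold TCA and stained with 0.4% SRB in 1% acetic acid.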

IGROV-1 = assay: Inhibition of cells growth by colorimetric assay (SRB), IGROV-1; format: cell-based; details: SRB, 48 hours exposure
Method in brief: as §1

HMEC1 = assay: Inhibition of cells growth by colorimetric assay (SRB), HMEC1; format: cell-based; details: SRB, 48 hours exposure
Method in brief: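 Sulforhodamine B protein-stain readout (490 nm) after 48 h drug exposure, with GI, TGI and LC parameters calculated from triplicate means. Cells seeded at 5×10^3 per well, allowed 18 h drug-free attachment; dose range 10 to 10^−8 μg/ml, vehicle DMSO/EtOH/PBS (0.5:0.5:99).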

SK-OV-3 = assay: Inhibition of cells growth by colorimetric assay (SRB), SK-OV-3; format: cell-based; details: SRB, 48 hours exposure
Method in brief: as §1

SK-BR-3 = assay: Inhibition of cells growth by colorimetric assay (SRB), SK-BR-3; format: cell-based; details: SRB, 48 hours exposure
Method in brief: as §1

SK-MEL-28 = assay: Inhibition of cells growth by colorimetric assay (SRB), SK-MEL-28; format: cell-based; details: SRB, 48 hours exposure
Method in brief: as §1

LNCaP = assay: Inhibition of cells growth by colorimetric assay (SRB), LNCaP; format: cell-based; details: SRB, 48 hours exposure
Method in brief: as §1

PANC-1 = assay: Inhibition of cells growth by colorimetric assay (SRB), PANC-1; format: cell-based; details: SRB, 48 hours exposure
Method in brief: as §1

A-549 = assay: Inhibition of cells growth by colorimetric assay (SRB), A-549; format: cell-based; details: SRB, 48 hours exposure
Method in brief: as §1

LoVo = assay: Inhibition of cells growth by colorimetric assay (SRB), LoVo; format: cell-based; details: SRB, 48 hours exposure
Method in brief: as §1

K-562 = assay: Inhibition of cells growth by colorimetric assay (SRB), K-562; format: cell-based; details: SRB, 48 hours exposure
Method in brief: as §1

LoVo-Dox = assay: Inhibition of cells growth by colorimetric assay (SRB), LoVo-Dox; format: cell-based; details: SRB, 48 hours exposure
Method in brief: as §1

IGROV-ET = assay: Inhibition of cells growth by colorimetric assay (SRB), IGROV-ET; format: cell-based; details: SRB, 48 hours exposure
Method in brief: as §1

DU-145 = assay: Inhibition of cells growth by colorimetric assay (SRB), DU-145; format: cell-based; details: SRB, 48 hours exposure
Method in brief: as §1

Description for Heart: (§2) Toxicity was asssessed by the methods reported in Toxicology in Vitro, 15 (2001) 571-577, J. Luber Narod et al.: “Evaluation of the use of in vitro methodolodies as tools for screening new compounds for potential in vivo toxicity”.
Description for Kidney: as §2
Description for Liver: as §2
Description for Myelo: as §2
Description for Skeletal: as §2

With `COc1cc2c(cc1OC)[C@@]1(CS[C@@H]3c4c(OC(C)=O)c(C)c5c(c4[C@H](COC1=O)N1C3[C@H]3c4c(cc(C)c(OC)c4O)C[C@@H]([C@@H]1O)N3C)OCO5)NCC2` (some centres unmarked) [Compound 67] the “TGI HT-29” value (HT-29; HT-29) was 5.59E-09, the GI50 (HT-29; Homo sapiens, HT-29, 48 h, HT-29, read-out: GI50 HT-29) was 0.741 nM and the LC50 (concentration for 50% cell killing) (HT-29; Homo sapiens, HT-29, 48 h, read-out: LC50 HT-29, HT-29) was 12900 nM. For the same molecule, the GI50 (IGROV-1; Homo sapiens, IGROV-1, 48 h, IGROV, read-out: GI50 IGROV) was 0.266 nM, the CC50 (IGROV-1; Homo sapiens, IGROV-1, 48 h, read-out: LC50 IGROV, IGROV) was 1.21 nM and the “TGI IGROV” value (IGROV-1; IGROV) was 5.67E-10. The “TGI HMEC-1” value (HMEC1; HMEC-1) was 8.49E-09, the GI50 (HMEC1; Homo sapiens, HMEC-1, 48 h, HMEC-1, read-out: GI50 HMEC-1) was 1.02 nM and the LC50 (HMEC1; Homo sapiens, HMEC-1, 48 h, read-out: LC50 HMEC-1, HMEC-1) was 5050 nM. For the same molecule, the GI50 (SK-OV-3; Homo sapiens, SK-OV-3, 48 h, SK-OV3, read-out: GI50 SK-OV3) was 0.385 nM, the LC50 (SK-OV-3; Homo sapiens, SK-OV-3, 48 h, read-out: LC50 SK-OV3, SK-OV3) was 7940 nM and the “TGI SK-OV3” value (SK-OV-3; SK-OV3) was 8.52E-10. For the same molecule, the “Toxicity Data Myelo” value (Myelo) was 3.27E-08, the “Toxicity Data Liver” value (Liver) was 3.20E-08 and the GI50 (SK-BR-3; Homo sapiens, SK-BR-3, 48 h, SK-BR3, read-out: GI50 SK-BR3) was 0.394 nM. The CC50 (SK-BR-3; Homo sapiens, SK-BR-3, 48 h, read-out: LC50 SK-BR3, SK-BR3) was 7.48 nM, the “TGI SK-BR3” value (SK-BR-3; SK-BR3) was 1.11E-09 and the GI50 (SK-MEL-28; Homo sapiens, SK-MEL-28, 48 h, MEL-28, read-out: GI50 MEL-28) was 0.411 nM. For the same molecule, the CC50 (SK-MEL-28; Homo sapiens, SK-MEL-28, 48 h, read-out: LC50 MEL-28, MEL-28) was 6.24 nM, the “TGI MEL-28” value (SK-MEL-28; MEL-28) was 9.90E-10 and the CC50 (LNCaP; Homo sapiens, LNCaP, 48 h, read-out: LC50 LNCAP, LNCAP) was 0.844 nM. For the same molecule, the GI50 (LNCaP; Homo sapiens, LNCAP, read-out: GI50 LNCAP) was 0.307 nM, the “TGI LNCAP” value (LNCaP; LNCAP) was 5.09E-10 and the GI50 (PANC-1; Homo sapiens, PANC-1, 48 h, PANC-1, read-out: GI50 PANC-1) was 0.443 nM. For the same molecule, the LC50 (concentration for 50% net cell kill) (PANC-1; Homo sapiens, PANC-1, 48 h, read-out: LC50 PANC-1, PANC-1) was 2670 nM, the “TGI PANC-1” value (PANC-1; PANC-1) was 1.09E-09 and the “Toxicity Data Heart” value (Heart) was 4.54E-08. For the same molecule, the “Toxicity Data Skeletal” value (Skeletal) was 2.37E-08, the “Toxicity Data Kidney” value (Kidney) was 5.36E-08 and the “TGI A-549” value (A-549; A-549) was 3.63E-09. For the same molecule, the GI50 (A-549; Homo sapiens, A549, 48 h, A-549, read-out: GI50 A-549) was 1.31 nM, the LC50 (concentration for 50% cell killing) (A-549; Homo sapiens, A549, 48 h, read-out: LC50 A-549, A-549) was 10.1 nM and the GI50 (LoVo; Homo sapiens, LoVo, 48 h, LOVO, read-out: GI50 LOVO) was 0.602 nM. For the same molecule, the LC50 (concentration for 50% cell killing) (LoVo; Homo sapiens, LoVo, 48 h, read-out: LC50 LOVO, LOVO) was 17.7 nM, the “TGI LOVO” value (LoVo; LOVO) was 3.34E-09 and the GI50 (K-562; Homo sapiens, K562, 48 h, K-562, read-out: GI50 K-562) was 0.118 nM. For the same molecule, the LC50 (50% cell killing) (K-562; Homo sapiens, K562, 48 h, read-out: LC50 K-562, K-562) was 0.8 nM, the “TGI K-562” value (K-562; K-562) was 2.85E-10 and the GI50 (LoVo-Dox; Homo sapiens, 48 h, LOVO-DOX, read-out: GI50 LOVO-DOX) was 4.21 nM. For the same molecule, the CC50 (LoVo-Dox; Homo sapiens, 48 h, read-out: LC50 LOVO-DOX, LOVO-DOX) was 12800 nM, the “TGI LOVO-DOX” value (LoVo-Dox; LOVO-DOX) was 3.65E-08 and the GI50 (IGROV-ET; Homo sapiens, 48 h, IGROV-ET, read-out: GI50 IGROV-ET) was 1.88 nM. The CC50 (IGROV-ET; Homo sapiens, 48 h, read-out: LC50 IGROV-ET, IGROV-ET) was 4960 nM, the “TGI IGROV-ET” value (IGROV-ET; IGROV-ET) was 7.02E-09 and the “TGI DU-145” value (DU-145; DU-145) was 8.61E-10. The GI50 (DU-145; Homo sapiens, DU-145, 48 h, DU-145, read-out: GI50 DU-145) was 0.433 nM and the CC50 (DU-145; Homo sapiens, DU-145, 48 h, read-out: LC50 DU-145, DU-145) was 4470 nM.
